Measurements as given in US11844845B2, “Cell penetrating peptide, conjugate comprising same, and composition comprising conjugate” (GEMVAX & KAEL CO., LTD., priority 2012, dated 2023).

system: HeLa cell; assay: Cell penetration of pep(CPP)-FITC conjugate in HeLa cell line, flow cytometry (FACS); type: cell-based, Homo sapiens; details: HeLa cells, 20 uM FITC-fused peptide, 37° C. for an hour, control = FITC only
Experimental: Homo sapiens cervix adenocarcinoma cell line as HeLa cell lines were purchased from ATCC (American Type Cell Culture). The cells were cultured in MEM supplemented with 10% fetal bovine serum (Invitrogen, USA), Earle's salts, non-essential amino acids, sodium pyruvate and 100 μg/ml penicillin and 10 units/ml streptomycin and cultured at 37° C., 5% CO2 incubator.
Flow cytometry and Confocal microscope analysis were performed to compare the between degree of cellular uptake of the cells were treated with SEQ ID NO: 2 to SEQ ID NO: 178, pep (CPP) and control.
The cell line was divided in a 6-well plate and cultured in a medium containing 10% fetal bovine serum (Invitrogen, USA), 100 μg/ml penicillin, 100 units/ml streptomycin at 37° C. 5% CO2 incubator for 12 hours. After washing the cell line with PBS, starvation was induced in a Minimum Essential Medium for an hour. 20 uM of each carrier peptide was treated and cultured at 37° C. for an hour. After repeating the step of washing the cells with PBS for three times, Trypsin-EDTA was treated form 10 mins at 37° C. to separate the carrier peptide on the outside of the cell. cells were collected with refrigerated PBS and centrifugation was performed to repeat the step of washing the cells for three times. After then, the cells were suspended in 0.5 ml of PBS containing 4% Paraformaldehyde and fluorescence of the cells was analyzed using FACS Calibur (Becton Dickinson). The cellular uptake aspect of control and various peptides combined with FITC was compared and analyzed by MFI (Mean Fluorescence Intensity).
Analysis results shown in FIGS. 2 to 29 are given in detail in Table 7 below.

Substance	cellular uptake, MFI (Mean Fluorescence Intensity)
HREARPALLTSRLRFIPKPDGLR (listed as Homo sapiens) [Pep-RIA-38]	18.02 ± 0.71
HREARPALLTSRLRFIPKPDGLRP (listed as Homo sapiens) [Pep-RIA-49]	15.15 ± 0.62
HREARPALLTSRLRFIPKPDGLRPI (listed as Homo sapiens) [Pep-RIA-62]	18.89 ± 0.75
IPK (listed as Homo sapiens) [Pep-RIA-103]	10.44 ± 0.18
LLT (listed as Homo sapiens) [Pep-RIA-152]	12.58 ± 0.47
LLTS (listed as Homo sapiens) [Pep-RIA-151]	8.81 ± 0.83
LLTSR (listed as Homo sapiens) [Pep-RIA-150]	14.51 ± 0.81
LLTSRL (listed as Homo sapiens) [Pep-RIA-108]	14.59 ± 0.17
LLTSRLR (listed as Homo sapiens) [Pep-RIA-149]	16.2 ± 0.22
LLTSRLRFI (listed as Homo sapiens) [Pep-RIA-147]	14.93 ± 1.55
LLTSRLRFIP (listed as Homo sapiens) [Pep-RIA-146]	17.43 ± 0.49
LLTSRLRFIPK (listed as Homo sapiens) [Pep-RIA-95]	25.79 ± 0.46
LRELSEAEVRQHREARPALLTSRLRFIPK (listed as Homo sapiens) [Pep-RIA-13]	15.37 ± 1.34
LRFIP (listed as Homo sapiens) [Pep-RIA-174]	5.66 ± 0.33
LRFIPK (listed as Homo sapiens) [Pep-RIA-100]	14.69 ± 1.48
LSEAEVRQHREARPALLTSRLRFIPK (listed as Homo sapiens) [Pep-RIA-10]	14.64 ± 0.76
LTS (listed as Homo sapiens) [Pep-RIA-158]	9.91 ± 1.44
LTSR (listed as Homo sapiens) [Pep-RIA-109]	9.37 ± 0.31
LTSRL (listed as Homo sapiens) [Pep-RIA-157]	11.42 ± 0.32
LTSRLR (listed as Homo sapiens) [Pep-RIA-156]	12.21 ± 0.24
LTSRLRF (listed as Homo sapiens) [Pep-RIA-155]	14.31 ± 0.55
LTSRLRFI (listed as Homo sapiens) [Pep-RIA-154]	12.21 ± 1.29
LTSRLRFIPK (listed as Homo sapiens) [Pep-RIA-96]	14.96 ± 0.42
PAL (listed as Homo sapiens) [Pep-RIA-138]	10.8 ± 0.78

Substance	cellular uptake, MFI (Mean Fluorescence Intensity)
PALL (listed as Homo sapiens) [Pep-RIA-137]	10.71 ± 1.99
PALLTSR (listed as Homo sapiens) [Pep-RIA-134]	13.28 ± 0.75
PALLTSRL (listed as Homo sapiens) [Pep-RIA-133]	12.95 ± 0.69
PALLTSRLR (listed as Homo sapiens) [Pep-RIA-132]	13.72 ± 0.52
PALLTSRLRF (listed as Homo sapiens) [Pep-RIA-106]	18.41 ± 1.12
PALLTSRLRFI (listed as Homo sapiens) [Pep-RIA-131]	13.66 ± 0.87
PALLTSRLRFIP (listed as Homo sapiens) [Pep-RIA-130]	18.54 ± 1.64
PALLTSRLRFIPK (listed as Homo sapiens) [Pep-RIA-93]	22.88 ± 1.82
QHREARPALLTSRLRFIPKPDGL (listed as Homo sapiens) [Pep-RIA-28]	14.8 ± 0.32
QHREARPALLTSRLRFIPKPDGLR (listed as Homo sapiens) [Pep-RIA-37]	16.73 ± 0.28
QLRELSEAEVRQHREARPALLTSRLRFIPK (listed as Homo sapiens) [Pep-RIA-14]	23.67 ± 1.22
REARPALLTSRLRFIPK (listed as Homo sapiens) [Pep-RIA-1]	24.3 ± 0.61
REARPALLTSRLRFIPKP (listed as Homo sapiens) [Pep-RIA-15]	16.32 ± 0.36
REARPALLTSRLRFIPKPD (listed as Homo sapiens) [Pep-RIA-18]	13.4 ± 0.34
REARPALLTSRLRFIPKPDG (listed as Homo sapiens) [Pep-RIA-23]	16.57 ± 0.68
REARPALLTSRLRFIPKPDGL (listed as Homo sapiens) [Pep-RIA-30]	15.34 ± 0.55
REARPALLTSRLRFIPKPDGLR (listed as Homo sapiens) [Pep-RIA-39]	15.84 ± 0.79
REARPALLTSRLRFIPKPDGLRP (listed as Homo sapiens) [Pep-RIA-50]	15.47 ± 0.73
REARPALLTSRLRFIPKPDGLRPI (listed as Homo sapiens) [Pep-RIA-63]	19.72 ± 0.33
RELSEAEVRQHREARPALLTSRLRFIPK (listed as Homo sapiens) [Pep-RIA-12]	12.93 ± 0.18
RFIPK (listed as Homo sapiens) [Pep-RIA-101]	12.35 ± 0.28
RLRFIPK (listed as Homo sapiens) [Pep-RIA-99]	17.45 ± 0.19
RPA (listed as Homo sapiens) [Pep-RIA-129]	11.18 ± 0.97
RPAL (listed as Homo sapiens) [Pep-RIA-128]	12.41 ± 0.16

Substance	cellular uptake, MFI (Mean Fluorescence Intensity)
RPALL (listed as Homo sapiens) [Pep-RIA-127]	12.15 ± 0.89
RPALLT (listed as Homo sapiens) [Pep-RIA-126]	11.51 ± 1.84
RPALLTS (listed as Homo sapiens) [Pep-RIA-125]	11.07 ± 0.55
RPALLTSRLR (listed as Homo sapiens) [Pep-RIA-123]	17.31 ± 0.68
RPALLTSRLRF (listed as Homo sapiens) [Pep-RIA-122]	23.8 ± 1.54
RPALLTSRLRFI (listed as Homo sapiens) [Pep-RIA-105]	19.4 ± 0.59
RPALLTSRLRFIP (listed as Homo sapiens) [Pep-RIA-121]	20.72 ± 0.33
RPALLTSRLRFIPK (listed as Homo sapiens) [Pep-RIA-92]	26.28 ± 0.38
RQHREARPALLISRLRFIPKPD (RQHREARPALLTSRLRFIPKPD; listed as Homo sapiens) [Pep-RIA-25]	17.41 ± 0.32
RQHREARPALLTSRLRFIPK (listed as Homo sapiens) [Pep-RIA-4]	27.25 ± 0.79
RQHREARPALLTSRLRFIPKP (listed as Homo sapiens) [Pep-RIA-24]	19.42 ± 0.72
RQHREARPALLTSRLRFIPKPDGL (listed as Homo sapiens) [Pep-RIA-27]	19.69 ± 0.49
RQHREARPALLTSRLRFIPKPDGLR (listed as Homo sapiens) [Pep-RIA-36]	14.07 ± 0.41
RQHREARPALLTSRLRFIPKPDGLRP (listed as Homo sapiens) [Pep-RIA-47]	17.6 ± 0.82
RQHREARPALLTSRLRFIPKPDGLRPI (listed as Homo sapiens) [Pep-RIA-60]	15.93 ± 1.84
SEAEVRQHREARPALLTSRLRFIPK (listed as Homo sapiens) [Pep-RIA-9]	12.7 ± 0.25
SRL (listed as Homo sapiens) [Pep-RIA-169]	5.64 ± 0.65
SRLRFI (listed as Homo sapiens) [Pep-RIA-166]	6.97 ± 0.53
SRLRFIP (listed as Homo sapiens) [Pep-RIA-165]	5.75 ± 0.41
SRLRFIPK (listed as Homo sapiens) [Pep-RIA-98]	14.04 ± 1.55
TSRLRF (listed as Homo sapiens) [Pep-RIA-161]	14.41 ± 0.81
TSRLRFIP (listed as Homo sapiens) [Pep-RIA-159]	12.58 ± 1.08
